“Also recorded” adds a separate entry of the source.

Assay type in all cases: cell-based, rat
Experiment [1] concerns actin stress fibers in astrocytes. The experiment is described as follows: phalloidin staining of actin stress fibers, astrocytes. To be noted: 10-1000 nM (FIG. 4A: 100 nM), 3 h. The procedure: (§1) Hippocampal cells were exposed to cytochalasin D and then fixed for 30 min in 4% paraformaldehyde/phosphate-buffered saline. Cell membranes were permeabilized by incubating for 5 min in a solution of 0.2% Triton X-100 in phosphate-buffered saline. Cells were then incubated for 30 min in PBS containing 0.005 U/ml fluorescein-phalloidin (Molecular Probes). Cells were rinsed in water and mounted in Vectashield antifade solution (Vector Laboratories) . Fluorescence images were acquired using a Sarastro 2000 confocal laser scanning microscope with a 60x oil-immersion objective. All images were acquired using identical settings for excitation intensity and detector gain.
(§2) FIG. 4. (A) Micrographs are confocal laser scanning microscope images of cultured hippocampal cells stained with fluorescein-labeled phalloidin. Cells were exposed for 3 h to either vehicle (control; left) or 100 nM cytochalasin D (right) prior to staining with phalloidin. The top micrographs show several neurons (arrowheads point to neuronal cell bodies); note reduction in phalloidin fluorescence in cytochalasin-treatedneurons.

Experiment [2] relates to cultured hippocampal neurons. The experiment is described as follows: calcium ionophore A23187 neurotoxicity. As to conditions: 100 nM, 1 h pretreatment. From the text:
Dissociated embryonic rat hippocampal cell cultures were established and maintained. All procedures conformed with the NIH Guide for the Care and Use of Laboratory Animals and were approved by the University of Kentucky Animal Care and Use Committee. Cultures were maintained on a polyethyleneimine-coated substrate in plastic 35-mm dishes or 96 wall plates (for cell survival studies) or glass-bottom 35-mm dishes (for [Ca^2+ ]i imaging studies). The cell density was ^~ 70-100 cells/mm^2. Cells were maintained in Eagle's minimum essential medium supplemented 10% with fetal bovine serum and containing 20 mM sodium pyruvate. […] Aβ25-35 (Bachem, lot ZJ744) and Aβ1-40 (Bachem, lot ZK600) were stored in the lyophilized form, and stocks were prepared immediately before use by dissolving the peptide at a concentration of 1 mM in sterile distilled water. […] Glutamate and colchicine (Sigma) were prepared as 200-500x stocks in saline. Cytochalasins D and E (Sigma) and calcium ionophore 4-bromo-A23187 (Calbiochem) were prepared as 500x stocks in dimethyl sulfoxide. Vitamin E (α-tocopherol; Sigma) was prepared as a 500x stock in ethanol. Nordihydroguaiaretic acid and FeSo4 were prepared as 500x stocks in sterile water.
Neuronal survival was quantified by counting viable neurons in the same microscope fields (10x objective) immediately before experimental treatment and at time points after treatment. In addition, cells were grown in 96-well plates and Alamar blue fluorescence (Alamar Laboratories)was quantified by using a fluorescence plate reader. Alamar Blue is a non-fluorescent substrate that, after reduction by cell metabolites, becomes fluorescent. […] Viability of the remaining neurons was assessed by morphological criteria. […] Survival values were expressed as percentages of the initial number of neurons present before experimental treatment. […]
FIG. 7. Cultures were pretreated for 1 h with 0.2% dimethylsulfoxide (control) or 100 nM cytochalasin D. Calcium ionophore A23187 was then added at the indicated concentrations and neuronal survival was assessed 8 h later. […]

The subject of experiment [3] is actin filaments in cultured hippocampal neurons. Nature of the experiment: phalloidin fluorescence of actin filaments, neurons. As to the method:
as §1, §2
(B) Cytochalasin D and glutamate cause a reduction in neuronal phalloidin fluorescence. […] Values represent the mean fluorescence intensity per neuronal cell body (±SEM; n=15-18). […]

In the case of `C=C1[C@@H](C)[C@H]2[C@H](Cc3ccccc3)NC(=O)[C@]23[C@H](OC(C)=O)/C=C/[C@@](C)(O)C(=O)[C@@H](C)C/C=C/[C@H]3[C@@H]1O` [Cytochalasin D, cytochalasin D], in experiment [1], the “actin stress fibers in astrocytes” value is “loss of actin stress fibers in astrocytes; also recorded: loss of stress fibers and cell rounding”. Besides, the “protection against A23187 neurotoxicity” value in experiment [2] was “essentially identical to that in control cultures”. Besides, the “phalloidin staining in neurons” value is reported as “pronounced reduction in phalloidin staining in neurons; also recorded: loss of fluorescence” in experiment [3] (100 nM, 1 h) and “concentration-dependent reduction in phalloidin staining in neurons” in experiment [3] (10-1000 nM, 3 h).

Values taken from patent US5830910A (priority 1995, dated 1998).
